In patent publication US20130244875A1, “METHODS AND COMPOSITIONS FOR IMPROVING PLANT HEALTH” (priority 2006, published 2013):
Where two headings read alike, the source gives them in different places.

Tests used:
[1] = tested on: PR-2, i.e., β-1,3-glucanase; assay: Induction of PR2 (northern blot) in DMO soybean sprayed with dicamba or DCSA; format: in vivo
Method: A 14 hour minimum photoperiod was provided with supplemental light at about 600 μE (micro-Einsteins) as needed. Trials were established in a randomized block design randomized by rate with 4 to 6 replications of each treatment.
All herbicide applications were made with the track sprayer using a Teejet® 9501E flat fan nozzle (Spraying Systems Co, Wheaton, Ill.) with air pressure set at a minimum of 24 psi (pounds per square inch), or 165 kpa (kilopascals)). The spray nozzle was kept at a height of about 16 inches above the top of plant material for spraying. The spray volume was 10 gallons per acre or 93 liters per hectare. Applications were made when plants had reached V-3 stage.
Events carrying a DMO transgene in their genome were grown and treated with dicamba (Clarity®, BASF) at 1 lb/Acre at Post-V3 stage. Leaf samples were harvested after 0, 3, 8, 24, 48, 72 hrs after treatment (HAT) and frozen for further analysis. In another experiment, DMO-containing plants were sprayed with either dicamba or DCSA at 0.25, 0.5 and 1 lb/Acre rate and tissue samples were collected 24 HAT. RNA was extracted and analyzed by northern blot analysis using PR-2, i.e., β-1,3-glucanase as a probe. PR-2 is a pathogenesis-related protein known to degrade […] and thus provide protection against fungal pathogens (U.S. Pat. No. 5,670,706 and Uknes et al., 1992).

PR5 = assay: Induction of PR5 (northern blot) by dicamba or DCSA; format: in vivo, soybean; conditions: probe specific to PR5; procedures as for PR2
transgenic soybean = assay: Soybean yield field trials with dicamba treatments
Method: The yield enhancing-benefit of DSCA was tested by growing non-transgenic and transgenic plants and applying dicamba to transgenic plants and harvesting the seeds. Non-transgenic and transgenic soybean seeds were planted near the beginning of the growing season in several locations at the time of best possible growth conditions such as soil moisture, temperature, and seeding depth. Across all locations seeds were planted under split-plot design with dicamba treatments as whole-plot effects and events as split-plot effects. The design details were as follows: 6 locations, 2 replications/location, 2 rows/plot, row length 12 feet (+3 ft alley), 9 seeds/foot, 108 seeds/row, 5 events (events 1-4 and a fifth event that was segregating); and 4 treatments as shown below in Table 4. In all, 240 plots were planted at 6 locations (40 per location).
Four non-transgenic border rows were planted all around the trial using a known commercial line such as A3525. Optimum production and management practices known in the art were followed. Maximum pest control and disease control was practiced as needed to prevent confounding effects of dicamba applications. The field was irrigated as needed according to standard practices.
The treatments were: untreated (Untrt); 1 lb/A dicamba at planting followed by 1 lb/A dicamba at V3 growth stage (1×1); 2 lb/A dicamba at planting followed by 2 lb/A dicamba at V3 growth stage (2×2); and 1 lb/A dicamba at planting followed by 1 lb/A dicamba at V3 growth stage followed by 1 lb/A dicamba at R1 stage (1×1×1).

[2] = tested on: transgenic soybean seeds containing the DMO gene; conditions: 22° C., 1 low, 2 moderate, 3 high, N=10
Method: Transgenic soybean seeds containing the DMO gene were germinated in the presence of 100 or 200 mM sodium chloride (NaCl, salt). […] A diglycoamine salt of dicamba (Clarity) was applied to 113.5 g samples of soy in a water based slurry that contained an agricultural dye. Slurry and dye rates were 8 and 0.5 fl oz/cwt. Aliquots of each dicamba solution were added to seeds contained in a glass jar and agitated. After uniform coverage was attained, seeds were placed on towels and allowed to dry. Non-DMO soybeans were treated at rates of 0, 0.5, 2.5, and 5.0 g ai/100 kg. DMO soybeans were treated with 0, 0.5 and 2.5 g ai/100 kg. Seed germination was scored DAT (2 days after treatment) or 5DAT (days after treatment) at 22° C. The germination rate was scored as 1—low, 2—moderate, 3—high for each treatment, N=10.

[3] = 24 hours at 30° C., RP-HPLC
Method: Leaf strip and whole plant studies were performed using liquid chromatography assays to determine metabolism of dicamba to DCSA in soybeans. Leaf tissue was removed from wild-type soybean plants and soybean plants transgenic for the DMO gene and were cut into 1 mm strips, the strips then incubated in 25 mM Tris pH 7.5 with radiolabeled dicamba (14C dicamba) for 24 hours at 30° C. After incubation, the leaf tissue was homogenized with a spinning pestle, acidified, solids pelleted by centrifugation and an aliquot of the supernatant analyzed by RP-HPLC equipped with a radiation detector.

[4] = tested on: soybean plants transgenic for the DMO gene; conditions: DMO transgenic soybean sprayed at up to 2.5 lb/A; various times; RP-HPLC
Method: For whole plant assays, soybean plants transgenic for the DMO gene were treated with 14C dicamba by spraying the plants with a solution containing the 14C dicamba at a rate up to 2.5 lb/A. Leaf samples from the treated plants were collected at various times after treatment and analyzed for the DMO metabolites by RP-HPLC. The leaf tissue was homogenized with a spinning pestle, acidified, solids pelleted by centrifugation and an aliquot of the supernatant analyze by RP-HPLC equipped with a radiation detector.

[5] = 200 mM NaCl, 0.5 g ai/100 kg dicamba seed treatment, 0.0 dicamba 1
[6] = 200 mM NaCl, 2.5 g ai/100 kg dicamba seed treatment, 0.0 dicamba 1

Compound: COc1c(Cl)ccc(Cl)c1C(=O)O [Dicamba, 3,6-dichloro-2-methoxybenzoic acid]
- time of peak induction of PR2 ([1]; DMO soybean, dicamba 1 lb/Acre at Post-V3): 48 h
- induction of PR2 at various time points ([1]; DMO soybean, dicamba 1 lb/Acre at Post-V3, 0-72 HAT, no induction in untreated plants): induction of PR2
- induction of PR2 at various rates ([1]; two transgenic soybean lines, 0.25, 0.5 and 1 lb/Acre, 24 hrs after treatment, no induction in untreated or water only): induction of PR2
- induction of PR5 (PR5): Induction of PR5
- yield compared with unsprayed controls (transgenic soybean; DMO soybean, dicamba 1.5 lb ae/Acre Pre, Post or both, in 4/5 events and 13/15 treatments, 6 locations): an increase or equivalent yield to unsprayed controls
- increase in seed yield (transgenic soybean; three DMO soybean events, dicamba treatments vs untreated, average of 15 locations): up to 4.6%
- maturity of dicamba treated plants compared with untreated plant (transgenic soybean; transgenic soybean, agronomic and efficacy trials): no delay in maturity
- Germination rating 2DAT ([2]; 100 mM NaCl, 0.5 g ai/100 kg dicamba seed treatment, 0.0 dicamba 1): 2
- Germination rating 5DAT ([2]; 100 mM NaCl, 0.5 g ai/100 kg dicamba seed treatment, 0.0 dicamba 2): 3
- Germination rating 2DAT ([2]; 100 mM NaCl, 2.5 g ai/100 kg dicamba seed treatment, 0.0 dicamba 1): 2
- Germination rating 5DAT ([2]; 100 mM NaCl, 2.5 g ai/100 kg dicamba seed treatment, 0.0 dicamba 2): 3
- Germination rating 2DAT [2, 5]: 1.5
- Germination rating 5DAT [2, 5]: 2
- Germination rating 2DAT [2, 6]: 1.5
- Germination rating 5DAT [2, 6]: 1
- metabolism of radiolabeled dicamba ([3]; leaf strips of transgenic DMO gene containing soybean): metabolized to DCSA and other polar metabolites
- metabolism of radiolabeled dicamba ([3]; leaf strips of wild-type soybean): not in the wild-type soybean plants
- metabolites of 14C dicamba in leaf samples [4]: DCSA is produced as a metabolite of dicamba
